Laboratory results taken from US8808760B2, “Extract from palm leaves and a method for producing the same” (Universiti Putra Malaysia, priority 2007, dated 2014).

Experiments:
L-NAME rats = assay: Serum nitric oxide, L-NAME rats; type: in vivo; design: unit not given here
[1] = system: SHR (spontaneously hypertensive rats); assay: Serum nitric oxide, SHR; type: in vivo; design: unit not given here
[2] = system: L-NAME induced hypertensive rats; assay: Morphology (body, kidney, heart weight), L-NAME rats; type: in vivo; details: mean ± SEM
Source text: (§1) The organ protective properties of the palm leaves extract and palm leaves functional ingredients on heart, and kidneys are shown in the morphology Table 4 below. […] Kidney/BW were similar in all groups. […] However, in L-NAME+captopril rats had lower Heart/BW ratio versus L-NAME.

[3] = system: SHR (spontaneous/genetically hypertensive animals); assay: Erythrocyte antioxidant enzymes (SOD, GSH-Px, CAT), SHR; type: in vivo, rats
Source text: SOD, GSH-Px, and CAT is the first line of antioxidative enzyme defense against oxidative stress, converting reactive oxygen to hydrogen peroxide and water. SOD, GSH-Px, and CAT […] activity indicate […] oxidative stress in hypertensive animals supplemented with oil palm leaves extract.

[4] = system: SHR (spontaneous/genetically hypertensive animals); assay: Organ antioxidant enzymes (kidney, heart, brain), SHR; type: in vivo, rats
Source text: SOD, GSH-Px, and CAT is the first line of antioxidative enzyme defense against oxidative stress, converting reactive oxygen to hydrogen peroxide and water.

normotensive animals [5] = assay: Erythrocyte antioxidant enzymes (SOD, GSH-Px, CAT), normotensive animals; type: in vivo, rats
[6] = system: SHR (spontaneously/genetically hypertensive rats); assay: Morphology (body, kidney, heart weight), SHR; type: in vivo; details: mean ± SEM
normotensive rats = assay: Serum nitric oxide, normotensive rats; type: in vivo; design: unit not given here
normotensive animals [7] = assay: Morphology (body, kidney, heart weight), normotensive rats; type: in vivo; details: mean ± SEM
Source text: as §1

C[C@H](CS)C(=O)N1CCC[C@H]1C(=O)O [Captopril, captopril]
nitric oxide values measured in serum (L-NAME rats; Week 0): 0.402 ± 0.008
nitric oxide values measured in serum (L-NAME rats; Week 6): 0.585 ± 0.082
nitric oxide values measured in serum (L-NAME rats; Week 8): 0.742 ± 0.123
nitric oxide values measured in serum (L-NAME rats; Week 12): 0.44 ± 0.072
nitric oxide values measured in serum ([1]; Week 0): 0.230 ± 0.02
nitric oxide values measured in serum ([1]; Week 6): 0.425 ± 0.05
nitric oxide values measured in serum ([1]; Week 8): 0.438 ± 0.08
nitric oxide values measured in serum ([1]; Week 12): 0.572 ± 0.02 +
Final body weight [2]: 296.4 ± 5.97 g
Heart [2]: 0.91 ± 0.07 g
Heart/Body weight [2]: 3.096 ± 0.0003 mg/g
Kidney [2]: 2.017 ± 0.07 g
Kidney/Body Weight [2]: 6.822 ± 0.0002 mg/g
Erythrocyte Catalase ([3]; Week 0): 0.019 ± 0.0007 k/ml
Erythrocyte CuZn-SOD ([3]; Week 0): 0.019 ± 0.0012 U/ml
Erythrocyte Glutathione Peroxidase ([3]; Week 0): 31.47 ± 0.94
Erythrocyte Catalase ([3]; Week 6): 0.017 ± 0.0003 k/ml
Erythrocyte CuZn-SOD ([3]; Week 6): 0.009 ± 0.0012 U/ml
Erythrocyte Glutathione Peroxidase ([3]; Week 6): 12.69 ± 2.47
Erythrocyte Catalase ([3]; Week 8): 0.017 ± 0.0004 k/ml
Erythrocyte CuZn-SOD ([3]; Week 8): 0.011 ± 0.0004 U/ml
Erythrocyte Glutathione Peroxidase ([3]; Week 8): 28.77 ± 2.05
Erythrocyte Catalase ([3]; Week 12): 0.016 ± 0.0003 k/ml
Erythrocyte CuZn-SOD ([3]; Week 12): 0.012 ± 0.0007 U/ml
Erythrocyte Glutathione Peroxidase ([3]; Week 12): 34.63 ± 2.2
Organ Catalase ([4]; Heart): 4.08 ± 0.458 k/mg protein
Organ CuZn-SOD ([4]; Heart): 0.78 ± 0.301 U/mg protein
Organ GPx ([4]; Heart): 3.20 ± 0.23 U/mg protein
Organ Catalase ([4]; Kidney): 25.96 ± 2.04 k/mg protein
Organ CuZn-SOD ([4]; Kidney): 0.80 ± 0.199 U/mg protein
Organ GPx ([4]; Kidney): 2.02 ± 0.184 U/mg protein
Organ Catalase ([4]; brain): 1.96 ± 0.27 k/mg protein
Organ CuZn-SOD ([4]; brain): 1.26 ± 0.097 U/mg protein
Organ GPx ([4]; brain): 2.87 ± 0.360 U/mg protein
Erythrocyte Catalase (normotensive animals [5]; Week 0): 0.014 ± 0.0006 k/ml
Erythrocyte CuZn-SOD (normotensive animals [5]; Week 0): 0.014 ± 0.0010 U/ml
Erythrocyte Glutathione Peroxidase (normotensive animals [5]; Week 0): 16.5 ± 0.76
Erythrocyte Catalase (normotensive animals [5]; Week 6): 0.013 ± 0.0003 k/ml
Erythrocyte CuZn-SOD (normotensive animals [5]; Week 6): 0.022 ± 0.0006 U/ml
Erythrocyte Glutathione Peroxidase (normotensive animals [5]; Week 6): 21.1 ± 5.05
Erythrocyte Catalase (normotensive animals [5]; Week 8): 0.014 ± 0.0005 k/ml
Erythrocyte CuZn-SOD (normotensive animals [5]; Week 8): 0.015 ± 0.0019 U/ml
Erythrocyte Glutathione Peroxidase (normotensive animals [5]; Week 8): 9.3 ± 1.24
Erythrocyte Catalase (normotensive animals [5]; Week 12): 0.013 ± 0.0008 k/ml
Erythrocyte CuZn-SOD (normotensive animals [5]; Week 12): 0.018 ± 0.0006 U/ml
Erythrocyte Glutathione Peroxidase (normotensive animals [5]; Week 12): 26.2 ± 6.90
Final body weight [6]: 259.09 ± 5.53 g
Heart [6]: 1.16 ± 0.07 g
Heart/Body weight [6]: 4.533 ± 0.0002 mg/g
Kidney [6]: 2.074 ± 0.09 g
Kidney/Body Weight [6]: 8.139 ± 0.0004 mg/g
nitric oxide values measured in serum (normotensive rats; Week 0): 0.381 ± 0.023
nitric oxide values measured in serum (normotensive rats; Week 6): 0.573 ± 0.024
nitric oxide values measured in serum (normotensive rats; Week 8): 0.455 ± 0.060
nitric oxide values measured in serum (normotensive rats; Week 12): 0.525 ± 0.071
Final body weight (normotensive animals [7]): 291.4 ± 8.56 g
Heart (normotensive animals [7]): 1.02 ± 0.04 g
Heart/Body weight (normotensive animals [7]): 3.558 ± 0.0002 mg/g
Kidney (normotensive animals [7]): 2.140 ± 0.07 g
Kidney/Body Weight (normotensive animals [7]): 7.370 ± 0.0003 mg/g
